Experimental data as given in ChEMBL document CHEMBL3120064, “Synthesis and biological evaluation of baicalein derivatives as potent antitumor agents” (Bioorg Med Chem Lett, 2014).
The source made the active and inactive calls. The rule behind the calls is not given here.

What was measured:
[1] = Antiproliferative activity against human BCG823 cells after 48 hrs by MTT assay; type: functional, cell-based; conditions: BCG823, 48 h
[2] = system: A549; experiment: Antiproliferative activity against human A549 cells after 48 hrs by MTT assay; type: functional, cell-based; conditions: A549, 48 h
[3] = system: HepG2; experiment: Antiproliferative activity against human HepG2 cells after 48 hrs by MTT assay; type: functional, cell-based; conditions: HepG2, 48 h
[4] = system: HepG2; experiment: Induction of apoptosis in human HepG2 cells assessed as early apoptotic cells at 1.5 uM after 72 hrs by annexin V and propidium iodide staining-based flow cytometric analysis (reference value: 1.4 +/- 0.1%); type: functional
[5] = system: HepG2; experiment: Induction of apoptosis in human HepG2 cells assessed as karyopyknosis at 0.75 to 3 uM after 72 hrs by DAPI staining-based fluorescent microscopic analysis; type: functional, cell-based
[6] = system: HepG2; experiment: Induction of apoptosis in human HepG2 cells assessed as chromatin condensation at 0.75 to 3 uM after 72 hrs by DAPI staining-based fluorescent microscopic analysis; type: functional, cell-based
[7] = system: HepG2; experiment: Induction of apoptosis in human HepG2 cells assessed as late apoptotic cells at 3 uM after 72 hrs by annexin V and propidium iodide staining-based flow cytometric analysis (reference value: 1.4 %); type: functional
[8] = system: HepG2; experiment: Induction of apoptosis in human HepG2 cells assessed as viable cells at 3 uM after 72 hrs by annexin V and propidium iodide staining-based flow cytometric analysis (reference value: 94.5 +/- 0.6%); type: functional; conditions: HepG2, 72 h, read-out: Activity
[9] = system: HepG2; experiment: Induction of apoptosis in human HepG2 cells assessed as necrotic cells at 3 uM after 72 hrs by annexin V and propidium iodide staining-based flow cytometric analysis (reference value: 2.7 +/- 0.1%); type: functional
[10] = system: HepG2; experiment: Induction of apoptosis in human HepG2 cells assessed as early apoptotic cells at 3 uM after 72 hrs by annexin V and propidium iodide staining-based flow cytometric analysis (reference value: 1.4 +/- 0.1%); type: functional
[11] = system: HepG2; experiment: Induction of apoptosis in human HepG2 cells assessed as late apoptotic cells at 0.75 uM after 72 hrs by annexin V and propidium iodide staining-based flow cytometric analysis (reference value: 1.4 %); type: functional
[12] = system: HepG2; experiment: Induction of apoptosis in human HepG2 cells assessed as early apoptotic cells at 0.75 uM after 72 hrs by annexin V and propidium iodide staining-based flow cytometric analysis (reference value: 1.4 +/- 0.1%); type: functional
[13] = system: HepG2; experiment: Induction of apoptosis in human HepG2 cells assessed as viable cells at 0.75 uM after 72 hrs by annexin V and propidium iodide staining-based flow cytometric analysis (reference value: 94.5 +/- 0.6%); type: functional; conditions: HepG2, 72 h, read-out: Activity
[14] = system: HepG2; experiment: Induction of apoptosis in human HepG2 cells assessed as necrotic cells at 0.75 uM after 72 hrs by annexin V and propidium iodide staining-based flow cytometric analysis (reference value: 2.7 +/- 0.1%); type: functional
[15] = system: HepG2; experiment: Induction of apoptosis in human HepG2 cells assessed as late apoptotic cells at 1.5 uM after 72 hrs by annexin V and propidium iodide staining-based flow cytometric analysis (reference value: 1.4 %); type: functional
[16] = system: HepG2; experiment: Induction of apoptosis in human HepG2 cells assessed as viable cells at 1.5 uM after 72 hrs by annexin V and propidium iodide staining-based flow cytometric analysis (reference value: 94.5 +/- 0.6%); type: functional; conditions: HepG2, 72 h, read-out: Activity
[17] = system: HepG2; experiment: Induction of apoptosis in human HepG2 cells assessed as necrotic cells at 1.5 uM after 72 hrs by annexin V and propidium iodide staining-based flow cytometric analysis (reference value: 2.7 +/- 0.1%); type: functional

Row | SMILES | IC50 [1] [µM] | IC50 [2] [µM] | IC50 [3] [µM] | further results
1 | O=c1cc(-c2ccccc2)oc2cc(OCc3ccccc3)c(OCCCN3CCOCC3)c(O)c12 | 51.4 | > 100 | 75.8 | –
2 | O=c1cc(-c2ccccc2)oc2cc(O)c(OCCCCN3CCCC3)c(O)c12 | 86.4 | 51 | > 100 | –
3 | O=c1cc(-c2ccccc2)oc2cc(O)c(OCCCCN3CCCCC3)c(O)c12 | 52.7 | 75 | > 100 | –
4 | O=c1cc(-c2ccccc2)oc2cc(O)c(O)c(O)c12 [BAICALEIN] | 19.1 | 13 | 28.3 | –
5 | COc1cc2oc(-c3ccccc3)cc(=O)c2c(O)c1OCCCCN1CCCCC1 | 21.9 | 34 | 21 | –
6 | O=c1cc(-c2ccccc2)oc2cc(O)c(OCCCN3CCOCC3)c(O)c12 | 88.3 | > 100 | 86.2 | –
7 | COc1cc2oc(-c3ccccc3)cc(=O)c2c(O)c1OCCCN1CCCCC1 | 25.3 | 17 | 22.3 | –
8 | O=c1cc(-c2ccccc2)oc2cc(O)c(OCCCN3CCCCC3)c(O)c12 | 60.9 | > 100 | 70.6 | –
9 | COc1cc2oc(-c3ccccc3)cc(=O)c2c(O)c1OCCCCN1CCN(C)CC1 | 53.5 | 32 | 36.7 | –
10 | COc1cc2oc(-c3ccccc3)cc(=O)c2c(O)c1OCCCN1CCOCC1 | 43.1 | 14 | 9.2 | –
11 | O=c1cc(-c2ccccc2)oc2cc(OCc3ccccc3)c(OCCCN3CCCCC3)c(O)c12 | 4.6 | 3.1 | 2.2 | –
12 | O=c1cc(-c2ccccc2)oc2cc(OCc3ccccc3)c(OCCCCN3CCCC3)c(O)c12 | 3.2 | 0.8 | 2 | Activity [4]: 5.1%; Activity [5]: Active; Activity [6]: Active; Activity [7]: 50.6%; viability at 3 µM [8]: 11.1%; Activity [9]: 8.3%; Activity [10]: 30%; Activity [11]: 2.2%; Activity [12]: 3.2%; viability at 0.75 µM [13]: 89.5%; Activity [14]: 5.2%; Activity [15]: 6.3%; viability at 1.5 µM [16]: 77.5%; Activity [17]: 11.1%
13 | O=c1cc(-c2ccccc2)oc2cc(O)c(OCCCN3CCCC3)c(O)c12 | > 100 | > 100 | > 100 | –
14 | CCN(CC)CCCCOc1c(OC)cc2oc(-c3ccccc3)cc(=O)c2c1O | 17.4 | 35 | 7.1 | –
15 | COc1cc2oc(-c3ccccc3)cc(=O)c2c2c1OCCCO2 | > 100 | 51.3 | 69 | –
16 | O=c1cc(-c2ccccc2)oc2cc(OCc3ccccc3)c(OCCCCN3CCOCC3)c(O)c12 | 83.6 | > 100 | > 100 | –
17 | O=c1cc(-c2ccccc2)oc2cc(OCc3ccccc3)c(OCCCCN3CCCCC3)c(O)c12 | 3 | 1.9 | 2.4 | –
18 | CN1CCN(CCCOc2c(OCc3ccccc3)cc3oc(-c4ccccc4)cc(=O)c3c2O)CC1 | 4.1 | 1.3 | 2.4 | –
19 | O=c1cc(-c2ccccc2)oc2cc(O)c(OCCCCN3CCOCC3)c(O)c12 | 58.7 | > 100 | 67.2 | –
20 | CN1CCN(CCCCOc2c(OCc3ccccc3)cc3oc(-c4ccccc4)cc(=O)c3c2O)CC1 | 7.2 | 4.4 | 2.5 | –
21 | COc1cc2oc(-c3ccccc3)cc(=O)c2c(O)c1OCCCN1CCN(C)CC1 | 31.3 | 18 | 15.1 | –
22 | COc1cc2oc(-c3ccccc3)cc(=O)c2c2c1OCCCCO2 | > 100 | > 100 | > 100 | –
23 | COc1cc2oc(-c3ccccc3)cc(=O)c2c(O)c1OCCCCN1CCCC1 | 10.6 | 13 | 4.9 | –
24 | O=c1cc(-c2ccccc2)oc2cc(OCc3ccccc3)c(OCCCN3CCCC3)c(O)c12 | > 100 | 1.4 | 4.2 | –
25 | CN(C)CCCOc1c(OCc2ccccc2)cc2oc(-c3ccccc3)cc(=O)c2c1O | 5.5 | 2.6 | 2.2 | –
26 | COc1cc2oc(-c3ccccc3)cc(=O)c2c(O)c1OCCCN1CCCC1 | 6.5 | 6 | 4.3 | –
27 | COc1cc2oc(-c3ccccc3)cc(=O)c2c(O)c1OCCCCN1CCOCC1 | 27.2 | 25 | 19.8 | –
28 | CCN(CC)CCCCOc1c(OCc2ccccc2)cc2oc(-c3ccccc3)cc(=O)c2c1O | 4.2 | 1.8 | 2.2 | –
29 | CN1CCN(CCCCOc2c(O)cc3oc(-c4ccccc4)cc(=O)c3c2O)CC1 | 82.9 | > 100 | 93.7 | –
30 | CCN(CC)CCCOc1c(OC)cc2oc(-c3ccccc3)cc(=O)c2c1O | 5.7 | 4.9 | 3.7 | –
